{"source": "patent US20070269843A1", "about": "“Diagnostic Assays That Use Mycobacteriophages” (priority 2004, published 2007)", "key": {"[1]": {"conditions": "cited from earlier work"}, "M. tuberculosis": {"tested_on": "M. tuberculosis", "assay": "FPTB plaque assay after exposure to CB-18 with carry-over into the infection buffer (Example 3)", "type": "cell-based, Mycobacterium tuberculosis", "conditions": "1 mM CB-18, 90 minutes at 37° C.; replicates 1-3, tubes a, b", "protocol": "To examine the effects of both exposing M. tuberculosis to CB-18, and having CB-18 carried over into the infection buffer, the following experiment was performed: A 0.5 MacFarland stock of M. tuberculosis was manufactured as described by Thornton, C. G., et al, Jour. Clin. Microbiol. 36:2004-2013 (1998), and a 0.5 ml portions were transferred to quadruplicate 50 ml conical tubes (FIG. 3). One pair of tubes simply contained 50 mM Tris-HCl pH 7.5 @ 25° C., 66 mM NaCl, and 0.025% NALC, while the other pair of tubes contained the same buffer supplemented with 1 mM CB-18. All tubes were incubated for 90 minutes at 37° C. and then diluted with sterile water to a final volume of 50 ml. In those tubes without CB-18 present, duplicate 250 μl portions were added directly to 1 ml of FPTB nutrient broth. From those tubes that contained CB-18, triplicate 250 μl portions were added to 50 mM Tris-HCl pH 7.5 @ 25° C., 66 mM NaCl, 2 mM CaCl2 buffer. All tubes were then immediately subjected to analysis using the FPTB plaque assay (i.e., the plaque assay was performed without pre-culture)."}, "[2]": {"tested_on": "Mycobacterium tuberculosis ATCC 27294", "assay": "FPTB plaque assay with CB-18 present during infection (Example 2)", "type": "cell-based", "conditions": "for Plaque formation following infection in Tris buffer and no pre-culture / Plaque formation following overnight pre-culture in FPTB nutrient broth: duplicates a, b; for Concentration present during infection that does not interfere with the assay: M. tuberculosis ATCC 27294"}, "[3]": {"tested_on": "Mycobacterium tuberculosis ATCC 27294", "assay": "FASTPlaqueTB (FPTB) plaque assay after timed exposure of M. tuberculosis to CB-18 (Example 1)", "type": "cell-based", "conditions": "for Plaque formation following infection in Tris buffer and no pre-culture / Plaque formation following overnight pre-culture in FPTB nutrient broth: duplicates a, b", "protocol": "In an effort to establish the effect of exposure to CB-18 on the M. tuberculosis type strain ATCC 27294, and any relationship of such an effect to time, the following experiment was performed using the FASTPlaqueTB™ (FPTB) assay manufactured by Biotec Laboratories Ltd (Ipswich, Suffolk, U.K.): A 0.5 MacFarland stock of M. tuberculosis was manufactured as described by Thornton, C. G., et al, Jour. Clin. Microbiol. 36:2004-2013 (1998), and a 1 ml portion were transferred to a 50 ml conical tubes containing 50 mM Tris-HCl pH 7.5 @ 25° C., 66 mM NaCl, 1 mM CB-18, and 0.025% N-acetyl-L-cysteine (NALC). From this tube was taken duplicate 500 μl aliquots at 0, 30, 60, 120, and 180 minutes and immediately serially diluted 400-fold to form two dilution series. In the first series (FIG. 1a), serial dilutions were made in nutrient broth (i.e., FPTB broth) provided by the manufacturer. In the second series (FIG. 1b), serial dilutions were made in a 50 mM Tris-HCl pH 7.5 @ 25° C., 66 mM NaCl buffer that had been supplemented with calcium chloride (CaCl2) to a final concentration of 2 mM.\nThe first series of time point-dilutions were then incubated at 37° C. overnight in FPTB broth prior to being assayed with the FPTB plaque assay. The second series of time point-dilutions were immediately subjected to analysis using the FPTB plaque assay."}, "[4]": {"tested_on": "M. tuberculosis type strain ATCC 27294", "conditions": "cited from earlier work"}, "[5]": {"tested_on": "mycobacteriophage D-29 in M. tuberculosis", "conditions": "cited from earlier work"}, "[6]": {"conditions": "1 mM CB-18, time of exposure 0 min"}, "[7]": {"conditions": "1 mM CB-18, time of exposure 30 min"}, "[8]": {"conditions": "1 mM CB-18, time of exposure 60 min"}, "[9]": {"conditions": "1 mM CB-18, time of exposure 120 min"}, "[10]": {"conditions": "1 mM CB-18, time of exposure 180 min"}}, "note": "Values joined by “and” are separate entries in the source; they are usually repeats but may differ in a detail not shown here. Identical values can stand only once. Counter-ions that a name gives are not always drawn. Like-named read-outs stand apart in the source and are kept apart here."}
{"smiles": "NC(=O)CNCCS(=O)(=O)O", "note": "[ACES, N-(2-Acetamido)-2-aminoethanesulfonic acid]", "values": [{"measurement": "pKa", "setting": "[1]", "value": 6.78}]}
{"smiles": "NC(=O)CN(CC(=O)O)CC(=O)O", "note": "[ADA, N-(2-Acetamido)iminodiacetic acid]", "values": [{"measurement": "pKa", "setting": "[1]", "value": 6.59}]}
{"smiles": "CCCCCCCCCCCCCCCCCC[N+](C)(C)CCCC(=O)[O-]", "note": "[CB-18, N-(3-carboxypropyl)-N,N-dimethyl-1-octadecanaminium, inner salt]", "values": [{"measurement": "Plaque formation following processing in CB-18, no pre-culture, and infection in Tris-CaCl2 buffer", "setting": "M. tuberculosis", "value": ">300"}, {"measurement": "Plaque formation following infection in Tris buffer and no pre-culture", "setting": "[2]; CB-18 5 μg/ml present during infection", "value": "171 and 191"}, {"measurement": "Plaque formation following overnight pre-culture in FPTB nutrient broth", "setting": "[2]; CB-18 5 μg/ml", "value": ">300"}, {"measurement": "Plaque formation following infection in Tris buffer and no pre-culture", "setting": "[2]; CB-18 10 μg/ml present during infection", "value": "204 and 186"}, {"measurement": "Plaque formation following overnight pre-culture in FPTB nutrient broth", "setting": "[2]; CB-18 10 μg/ml", "value": ">300"}, {"measurement": "Plaque formation following infection in Tris buffer and no pre-culture", "setting": "[2]; CB-18 20 μg/ml present during infection", "value": "181 and 198"}, {"measurement": "Plaque formation following overnight pre-culture in FPTB nutrient broth", "setting": "[2]; CB-18 20 μg/ml", "value": ">300"}, {"measurement": "Plaque formation following overnight pre-culture in FPTB nutrient broth", "setting": "[2]; CB-18 40 μg/ml", "value": ">300"}, {"measurement": "Concentration present during infection that does not interfere with the assay", "setting": "[2]", "value": "≤ 20", "unit": "µg/mL"}, {"measurement": "Concentration present during infection that does not interfere with the assay", "setting": "[2]; conversion of 20 μg/ml", "value": "≤ 52", "unit": "µM"}, {"measurement": "Plaque formation following infection in Tris buffer and no pre-culture", "setting": "[3]; [6]", "value": "132 and 121"}, {"measurement": "Plaque formation following overnight pre-culture in FPTB nutrient broth", "setting": "[3]; [6]", "value": ">300"}, {"measurement": "Plaque formation following infection in Tris buffer and no pre-culture", "setting": "[3]; [7]", "value": "145 and 167"}, {"measurement": "Plaque formation following overnight pre-culture in FPTB nutrient broth", "setting": "[3]; [7]", "value": ">300"}, {"measurement": "Plaque formation following infection in Tris buffer and no pre-culture", "setting": "[3]; [8]", "value": "100 and 90"}, {"measurement": "Plaque formation following overnight pre-culture in FPTB nutrient broth", "setting": "[3]; [8]", "value": ">300"}, {"measurement": "Plaque formation following infection in Tris buffer and no pre-culture", "setting": "[3]; [9]", "value": "155 and 140"}, {"measurement": "Plaque formation following overnight pre-culture in FPTB nutrient broth", "setting": "[3]; [9]", "value": ">300"}, {"measurement": "Plaque formation following infection in Tris buffer and no pre-culture", "setting": "[3]; [10]", "value": "213 and 221"}, {"measurement": "Plaque formation following overnight pre-culture in FPTB nutrient broth", "setting": "[3]; [10]", "value": ">300"}, {"measurement": "Effect of exposure on D-29 mycobacteriophage plaque assay", "setting": "[3]; 1 mM CB-18 for 30, 60, 120, and 180 minutes", "value": "no deleterious effects"}, {"measurement": "Growth characteristics in culture media", "setting": "[4]; CB-18 present at 20 μg/ml in the culture media", "value": "significantly affected"}, {"measurement": "Tuberculocidal activity", "setting": "[4]; time-dependent killing", "value": "has tuberculocidal activity"}]}
{"smiles": "O=S(=O)(O)CCCCN1CCN(CCO)CC1", "note": "[HEPBS, N-(2-Hydroxyethyl)piperazine-N′-(4-butanesulfonic acid)]", "values": [{"measurement": "pKa", "setting": "[1]", "value": 8.30}]}
{"smiles": "O=S(=O)(O)CCCCN1CCOCC1", "note": "[MOBS, 4-(N-Morpholino)butanesulfonic acid]", "values": [{"measurement": "pKa", "setting": "[1]", "value": 7.60}]}
{"smiles": "O=S(=O)(O)CCN1CCN(CCS(=O)(=O)O)CC1", "note": "[PIPES, piperazine-1,4-bis(2-ethanesulfonic acid)]", "values": [{"measurement": "pKa", "setting": "[1]", "value": 6.76}]}
{"smiles": "O=S(=O)(O)CC(O)CN1CCN(CC(O)CS(=O)(=O)O)CC1", "note": "(stereo not shown) [POPSO, piperazine-N,N′-bis(2-hydroxypropanesulfonic acid)]", "values": [{"measurement": "pKa", "setting": "[1]", "value": 7.80}]}
{"smiles": "CCCCCCCC/C=C\\CCCCCCCC(=O)OCCOCC(OCCO)C1OCC(OCCO)C1OCCO", "note": "(stereo not shown) [Tween 80]", "values": [{"measurement": "Concentration above which propagation of mycobacteriophage D-29 in M. tuberculosis is interfered with", "setting": "[5]", "value": "above 0.0012%"}, {"measurement": "Concentration above which propagation of mycobacteriophage D-29 in M. tuberculosis is interfered with", "setting": "[5]; printed as conversion of […]", "value": "> 1", "unit": "EM"}]}
